Data on 13 compounds can be found in US7932270B2 (Cytokinetics, Inc., priority 2006, dated 2011).

A word on the IC50: it is the concentration that gives 50% inhibition.

For the experiment, the target named is T1, chicken gizzard smooth muscle myosin subfragment-1 chemically crosslinked to cardiac or skeletal actin (Gallus gallus, UniProt P10587).
T1 construct: chicken gizzard smooth muscle myosin subfragment-1; from tissue; host or cells: chicken gizzard
T1 sequence (P02607 2-151): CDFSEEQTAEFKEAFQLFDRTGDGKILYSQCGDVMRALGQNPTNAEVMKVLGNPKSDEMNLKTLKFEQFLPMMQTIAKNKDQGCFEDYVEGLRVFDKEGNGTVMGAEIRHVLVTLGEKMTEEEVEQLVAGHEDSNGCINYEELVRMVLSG
T1 sequence (P10587 84-789): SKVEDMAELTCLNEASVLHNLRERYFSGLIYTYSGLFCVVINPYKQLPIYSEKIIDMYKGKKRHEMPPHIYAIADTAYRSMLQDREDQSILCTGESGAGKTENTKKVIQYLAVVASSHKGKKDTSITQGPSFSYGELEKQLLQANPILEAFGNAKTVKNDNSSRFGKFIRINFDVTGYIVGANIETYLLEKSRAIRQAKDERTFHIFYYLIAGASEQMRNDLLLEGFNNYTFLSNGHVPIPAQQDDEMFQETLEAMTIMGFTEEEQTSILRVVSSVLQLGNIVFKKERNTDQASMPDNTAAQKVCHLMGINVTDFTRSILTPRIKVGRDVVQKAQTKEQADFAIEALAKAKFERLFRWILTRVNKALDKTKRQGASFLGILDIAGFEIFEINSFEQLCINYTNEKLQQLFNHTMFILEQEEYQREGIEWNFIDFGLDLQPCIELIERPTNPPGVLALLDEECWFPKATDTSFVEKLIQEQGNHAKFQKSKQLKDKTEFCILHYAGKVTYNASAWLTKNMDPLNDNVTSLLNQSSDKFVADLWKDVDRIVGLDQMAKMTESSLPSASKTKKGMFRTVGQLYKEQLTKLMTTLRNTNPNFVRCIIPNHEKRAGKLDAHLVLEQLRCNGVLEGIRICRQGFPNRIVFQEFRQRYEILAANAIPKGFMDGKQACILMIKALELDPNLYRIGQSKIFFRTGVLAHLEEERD
The experiment is described as follows: Smooth muscle myosin ATPase dose response assay (pyruvate kinase/horseradish peroxidase/pyruvate oxidase-coupled, amplex red fluorescence). The class given is biochemical. The conditions noted are these: read-out: IC50 Arithmetic Mean. Put shortly:
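Readout is amplex red signal from coupled ATPase of actin-crosslinked gizzard myosin S1 (0.15 mM ATP, 12 mM K-PIPES, pH 7.00). IC50 is the half-maximal activity point of a four-parameter Hill fit.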
For the compound `N#Cc1ccccc1-c1ccc(C(=O)NC[C@H]2CCC(=O)N2CCN)c(NCCc2cccc(F)c2)n1` [N-{[(2R)-1-(2-aminoethyl)-5-oxopyrrolidin-2-yl]methyl}(6-(2-cyanophenyl)-2-{[2-(3-fluorophenyl)ethyl]amino}(3-pyridyl))carboxamide], the IC50 is 110 nM.

On to `Cn1cc(-c2nc(NCCc3cccc(F)c3)c(C(=O)NCc3cccnc3)cc2Br)cn1` [(5-bromo-2-{[2-(3-fluorophenyl)ethyl]amino}-6-(1-methylpyrazol-4-yl)(3-pyridyl))-N-(3-pyridylmethyl)carboxamide], for which the concentration for half-maximal inhibition (IC50) was 23 nM.

As to `N#Cc1ccccc1-c1ccc(C(=O)NCCN2CCC[C@H](NC(=O)OCc3ccccc3)C2=O)c(NCCc2cccc(F)c2)n1` [(6-(2-cyanophenyl)-2-{[2-(3-fluorophenyl)ethyl]amino}(3-pyridyl))-N-(2-{2-oxo-3-[(phenylmethoxy)carbonylamino]piperidyl}ethyl)carboxamide], the IC50 amounted to 11800 nM.

As for `N#Cc1ccc(F)cc1-c1ccc(C(=O)NCc2cccnc2)c(NCCc2cccc(F)c2)n1` [(6-(2-cyano-5-fluorophenyl)-2-{[2-(3-fluorophenyl)ethyl]amino}(3-pyridyl))-N-(3-pyridylmethyl)carboxamide], the 50% inhibitory concentration (IC50) amounted to 53 nM.

`CNC(=O)c1ccc(-c2ccccc2)nc1NCCc1ccccn1` [N-methyl{6-phenyl-2-[(2-(2-pyridyl)ethyl)amino](3-pyridyl)}carboxamide]: the IC50 stood at 27700 nM.

In the case of `CC(C)(C)OC(=O)NCC(=O)N1CCC[C@@H]1CNC(=O)c1cc(F)c(-c2cn[nH]c2)nc1NCCc1cccc(F)c1` [N-[((2R)-1-{2-[(tert-butoxy)carbonylamino]acetyl}pyrrolidin-2-yl)methyl](5-fluoro-2-{[2-(3-fluorophenyl)ethyl]amino}-6-pyrazol-4-yl(3-pyridyl))carboxamide], the IC50 came out at 1080 nM.

For `O=C(NC[C@H]1CCN1C(=O)CO)c1ccc(-c2ccc(CO)s2)nc1NCCc1cccc(F)c1` [N-{[(2R)-1-(2-hydroxyacetyl)azetidin-2-yl]methyl}(2-{[2-(3-fluorophenyl)ethyl]amino}-6-[5-(hydroxymethyl)(2-thienyl)](3-pyridyl))carboxamide], the IC50 was 2540 nM.

`N#Cc1ccccc1-c1ccc(C(=O)NCCc2ncccc2CN)c(NCCc2cccc(F)c2)n1` [N-{2-[3-(aminomethyl)(2-pyridyl)]ethyl}(6-(2-cyanophenyl)-2-{[2-(3-fluorophenyl)ethyl]amino}(3-pyridyl))carboxamide]: the half-maximal inhibitory concentration (IC50) was determined as 310 nM.

Turning to `O=C(NCc1cccnc1)c1ccc(-c2ccc(CO)cc2)nc1NCCc1ccccn1` [{6-[4-(hydroxymethyl)phenyl]-2-[(2-(2-pyridyl)ethyl)amino](3-pyridyl)}-N-(3-pyridylmethyl)carboxamide], the IC50 turned out to be 2430 nM.

With `Cc1cccc(-c2ccc(C(=O)NCc3cccnc3)c(NCCc3ccccn3)n2)c1C` [{6-(2,3-dimethylphenyl)-2-[(2-(2-pyridyl)ethyl)amino](3-pyridyl)}-N-(3-pyridylmethyl)carboxamide], the half-inhibitory concentration (IC50) is 6940 nM.

`N#Cc1ccccc1-c1ccc(C(=O)NCc2ccc(F)cc2)c(NCCc2cccc(F)c2)n1` [(6-(2-cyanophenyl)-2-{[2-(3-fluorophenyl)ethyl]amino}(3-pyridyl))-N-[(4-fluorophenyl)methyl]carboxamide]: the IC50 amounted to 2110 nM.

With `Cn1cc(-c2ccc(C(=O)NCc3ccnn3CCCN)c(NCCc3cccc(F)c3)n2)cn1` [N-{[1-(3-aminopropyl)pyrazol-5-yl]methyl}(2-{[2-(3-fluorophenyl)ethyl]amino}-6-(1-methylpyrazol-4-yl)(3-pyridyl))carboxamide], the concentration for half-maximal inhibition (IC50) was 228 nM.

As to `Cn1cc(-c2ccc(C(=O)NC[C@H]3CCCN3C(=O)CCCN)c(NCCc3cccc(F)c3)n2)cn1` [N-{[(2R)-1-(4-aminobutanoyl)pyrrolidin-2-yl]methyl}(2-{[2-(3-fluorophenyl)ethyl]amino}-6-(1-methylpyrazol-4-yl)(3-pyridyl))carboxamide], the 50% inhibitory concentration (IC50) worked out at 351 nM.
